Measurements reported in patent publication US8022209B2, “Substituted nitrogen-containing heteroaryl derivatives useful as modulators of the histamine H4 receptor” (Janssen Pharmaceutica NV, priority 2007, dated 2011).
pKi: −log10 of the molar value.

Target: T1, human histamine H4 receptor (Homo sapiens, UniProt Q9H3N8)
T1 construct: expressed in transfected cells; host or cells: SK-N-MC cells or COS7 cells, transiently transfected with pH4R; cell membranes
Assay: Binding Assay on Recombinant Human Histamine H4 Receptor
Details: competition binding vs 3H-histamine (5 nM, KD 5 nM), membranes of SK-N-MC or COS7 cells transfected with human H4R; Cheng-Prusoff; average of results obtained
Procedure: Binding Assay on Recombinant Human Histamine H4 Receptor
SK-N-MC cells or COS7 cells were transiently transfected with pH4R and grown in 150 cm^2 tissue culture dishes. Cells were washed with saline solution, scraped with a cell scraper and collected by centrifugation (1000 rpm, 5 min). Cell membranes were prepared by homogenization of the cell pellet in 20 mM Tris-HCl with a polytron tissue homogenizer for 10 sec at high speed. Homogenate was centrifuged at 1000 rpm for 5 min at 4° C. The supernatant was then collected and centrifuged at 20,000×g for 25 min at 4° C. The final pellet was resuspended in 50 mM Tris-HCl. Cell membranes were incubated with ^3H-histamine (5-70 nM) in the presence or absence of excess histamine (10,000 nM). Incubation occurred at room temperature for 45 min. Membranes were harvested by rapid filtration over Whatman GF/C filters and washed 4 times with ice-cold 50 mM Tris HCl. Filters were then dried, mixed with scintillant and counted for radioactivity. SK-N-MC or COS7 cells expressing human histamine H4 receptor were used to measure the affinity of binding of other compounds and their ability to displace ^3H-ligand binding by incubating the above-described reaction in the presence of various concentrations of inhibitor or compound to be tested. For competition binding studies using ^3H-histamine, Ki values were calculated, based on an experimentally determined KD value of 5 nM and a ligand concentration of 5 nM, according to Y. C.

Row | SMILES | pKi
1 | CN1CCN(c2ncnc(-c3cc(F)cc(F)c3)n2)CC1 [compound 137, 2-(3,5-Difluoro-phenyl)-4-(4-methyl-piperazin-1-yl)-[1,3,5]triazine] | 7.11
2 | CN1CCN(c2ncnc(-c3ccc(F)cc3Cl)n2)CC1 [compound 138, 2-(2-Chloro-4-fluoro-phenyl)-4-(4-methyl-piperazin-1-yl)-[1,3,5]triazine] | 7.00
3 | CN1CCN(c2ccnc(-c3ccc(-c4cccs4)s3)c2)CC1 [compound 145] | 6.57
4 | Cc1nc(-c2cc(F)c(F)c(F)c2)nc(N2CCN(C)CC2)n1 [compound 147, 2-Methyl-4-(4-methyl-piperazin-1-yl)-6-(3,4,5-trifluoro-phenyl)-[1,3,5]triazine] | 6.71
5 | CN1CCN(c2ccnc(-c3sccc3Cl)c2)CC1 [compound 148] | 6.97

Results, then the compound that gave them:

Row | pKi | SMILES
6 | 7.10 | Cc1ccsc1-c1ncnc(N2CCN(C)CC2)n1 [compound 136]
7 | 6.07 | CN1CCN(c2ncnc(-c3ccccn3)n2)CC1 [compound 139, 2-(4-Methyl-piperazin-1-yl)-4-pyridin-2-yl-[1,3,5]triazine]
8 | 7.28 | Cc1ccsc1-c1ncnc(N2CCN(C)CC2)n1 [compound 140, 2-(4-Methyl-piperazin-1-yl)-4-(3-methyl-thiophen-2-yl)-[1,3,5]triazine]
9 | 6.71 | CN1CCN(c2ncnc(-c3cc(Cl)sc3Cl)n2)CC1 [compound 143, 2-(2,5-Dichloro-thiophen-3-yl)-4-(4-methyl-piperazin-1-yl)-[1,3,5]triazine]
10 | 6.46 | CN1CCN(c2ncnc(-c3csc4ccccc34)n2)CC1 [compound 144, 2-Benzo[b]thiophen-3-yl-4-(4-methyl-piperazin-1-yl)-[1,3,5]triazine]
11 | 6.86 | CN1CCN(c2ncnc(-c3cc(Cl)cs3)n2)CC1 [compound 151, 2-(4-Chloro-thiophen-2-yl)-4-(4-methyl-piperazin-1-yl)-[1,3,5]triazine]
